Experimental findings from article PMC6225232, “Design, Synthesis and Biological Evaluation of Ligustrazine-Flavonoid Derivatives as Potential Anti-Tumor Agents” (Molecules : A Journal of Synthetic Chemistry and Natural …, 2018) are described below.

Holding throughout (format): cell-based, human
The test system of one experiment is HepG-2. The experiment in a line: MTT cytotoxicity assay, HepG-2. The settings on record: Homo sapiens, HepG2, 72 h. As for the experimental part:
(§1) Five kinds of tumor cell lines and one normal endothelial cell were routinely cultured respectively in RPMI 1640 medium supplemented with 10% (V/V) FBS and 1% (V/V) penicillin-streptomycin, incubated at 37 °C in a 5% CO2 containing incubator. The five tumor cell lines were plated onto 96-well sterile plates in 100 μL/well of medium at a density of 3.5 × 10^3 cells per well and incubated at 37 °C with 5% CO2 for 24 h. Then luteolin, baicalein, apigenin, chrysin, quercetin, fisetin, genistein, daidzein, naringenin, DDP and compounds 10–25 were added at various concentrations (5, 10, 20, 40, 50 μΜ). Each plate contained control group, blank group, drug group and positive group (DDP). After 72 h, 20 μL MTT in phosphate buffered saline (PBS, 5 mg/mL) was added to each well and the plates were incubated at 37 °C for 4 h, then removing the liquid and adding dimethyl sulfoxide (DMSO, 100 μL) to dissolve the MTT formazan. The optical density (OD) for each well was measured on a BIORAD 550 spectrophotometer plate reader (Bio-Gene Technology Ltd., Guangzhou, China) at a wavelength of 490 nm. All tests were carried out three times in parallel.
In general terms: Tetrazolium assays rely on reduction of a dye to a coloured formazan, in cell work by metabolically active cells.

A further experiment deals with Bel-7402. The experiment in a line: MTT cytotoxicity assay, Bel-7402. The protocol: as §1
A further experiment relates to HT-29. As to the kind of experiment: MTT cytotoxicity assay, HT-29. The note with it: Homo sapiens, HT-29, 72 h. The protocol:
as §1

Another experiment deals with MCF-7. As to the kind of experiment: MTT cytotoxicity assay, MCF-7. The note with it: Homo sapiens, MCF7, 72 h. The protocol:
as §1

In the next experiment the test system is HeLa. The experiment in a line: MTT cytotoxicity assay, HeLa. The settings on record: Homo sapiens, 72 h. As for the experimental part: as §1
In the next experiment the test system is HUVEC-12. As to the kind of experiment: MTT cytotoxicity assay using HUVEC-12 cell. The protocol: Five kinds of tumor cell lines and one normal endothelial cell were routinely cultured respectively in RPMI 1640 medium supplemented with 10% (V/V) FBS and 1% (V/V) penicillin-streptomycin, incubated at 37 °C in a 5% CO2 containing incubator.
The HUVEC-12 cell were seeded in 96-well plates (6.0 × 10^3 cells/ well), and incubated at 37 °C in a 5% CO2 containing incubator. After 24 h, the medium was replaced with fresh medium containing the compounds to be tested. Compounds 14, 19 and DDP were added in final concentrations ranging from 2.5 to 40 μM. Each plate contained control group, blank group and drug group. After 24 h, 20 μL MTT was added to each well and the plates were incubated at 37 °C for 4 h, then removing the liquid and adding dimethyl sulfoxide (DMSO) (100 μL) to dissolve the MTT formazan. The optical density (OD) for each well was measured on a BIORAD 550 spectrophotometer plate reader at a wavelength of 490 nm. All tests were carried out three times in parallel. The proliferation inhibition rates of tumor cells were calculated by {1 − [OD490 (Drug group) − OD490 (Blank group)]/[OD490 (Control group) − OD490 (Blank group)]} × 100%.

In experiment [1] the test system is Bel-7402 cells. The experiment in a line: Morphological analysis using Giemsa and DAPI staining. The note with it: 72 h. As for the experimental part:
The Bel-7402 cells were plated onto 12-well sterile plates at a density of 2.4 × 10^4 cells per well and incubated at 37 °C in a 5% CO2 containing incubator. Then the cells were incubated in the presence of compound 14 at various concentrations (0, 10, 20, 40 μΜ) for 72 h. Then cells were washed with PBS twice, fixed with cold ethanol and 4% paraformaldehyde (pH = 7.4) for 10 min respectively and washed with PBS again. Then fixed cells were stained with 6% Giemsa solution or DAPI at the concentration of 1 mg/mL for 5 min in the dark. Finally, the cells washed with water and dried. The cell morphological changes were observed by fluorescent microscopy and images were captured by digital camera.

For experiment [2], the system named is Bel-7402 cells. The experiment in a line: Apoptosis analysis by flow cytometry, Annexin V-FITC/PI staining. The note with it: 72 h, control 5.4%. As for the experimental part: The Bel-7402 cells were plated onto 6-well sterile plates (4.8 × 10^4 cells/well) and placed at 37 °C with 5% CO2 for 24 h. Then compound 14 at various concentrations (0, 5, 10, 20 μΜ) was added. After 72 h, all cells were collected respectively with the right amount of trypsin (without EDTA) digestion. Then the cells were washed with cold PBS twice and centrifuged at 1000 rpm for 5 min. The harvested cells were resuspended in 200 μL binding buffer, which contained 10 μL Annexin V-FITC and PI. After avoided light reaction for 15 min, the cells were analyzed with a flow cytometer.

Broadly, the IC50 is the concentration needed to halve the response being measured. A low value points to greater potency in that assay.

Each structure is given as a SMILES string.

With `Cc1nc(C)c(COc2ccc(/C=C/C(=O)c3c(O)cc(OCc4nc(C)c(C)nc4C)cc3OCc3nc(C)c(C)nc3C)cc2)nc1C` [Compound 14, (E)-1-(2-Hydroxy-4,6-bis((3,5,6-trimethylpyrazin-2-yl)methoxy)phenyl)-3-(4-((3,5,6-trimethylpyrazin-2-yl)methoxy)phenyl)prop-2-en-1-one], the concentration for half-maximal inhibition (IC50) amounted to 17.3 ± 0.47 µM in the experiment on HepG-2; 10.7 ± 1.12 µM in the experiment with Bel-7402 (72 h); 10.5 ± 1.12 µM in the experiment on Bel-7402 (Homo sapiens, Bel-7402, 72 h); 31.9 ± 1.96 µM in the experiment on HT-29; 29.8 ± 2.18 µM in the experiment on MCF-7; 25.1 ± 1.8 µM in the experiment with HeLa. Besides, the IC50 in the experiment with HUVEC-12 (Homo sapiens, MTT, 24 h) is > 40 µM. Further, the “Proliferation Rate (%) 2.5 μM” value in the experiment with HUVEC-12 (HUVEC-12, 24 h, 2.5 μM, negative = inhibition) was 1.62 ± 0.75%. The “Proliferation Rate (%) 5 μM” value with HUVEC-12 (HUVEC-12, 24 h, 5 μM, negative = inhibition) is 1.99 ± 0.23%. Also, the “Proliferation Rate (%) 10 μM” value with HUVEC-12 (HUVEC-12, 24 h, 10 μM, negative = inhibition) is 14.84 ± 1.41%. Also, in the experiment on HUVEC-12 (HUVEC-12, 24 h, 20 μM, negative = inhibition), the “Proliferation Rate (%) 20 μM” value is 16.71 ± 0.29%. Further, in the experiment with HUVEC-12 (HUVEC-12, 24 h, 40 μM, negative = inhibition), the “Proliferation Rate (%) 40 μM” value is given as −2.32 ± 1.37%. The “cell morphology, Giemsa staining” value in the experiment with Bel-7402 cells [1] (Bel-7402, 40 μM) is “mainly cell fragments rather than complete cells”. Moreover, in the experiment with Bel-7402 cells [1] (Bel-7402, 10, 20, 40 μM), the “cell morphology, DAPI staining” value is “morphological features of apoptosis”. Moreover, the “apoptosis ratio (early and late)” value in the experiment on Bel-7402 cells [2] (Bel-7402, 10 μM) is on record as 45.5%; with Bel-7402 cells [2] (Bel-7402, 20 μM), 54.6%.
